Measurements: patent publication US10711230B2, “N-acyl proline derivatives as food flavoring compounds” (Givaudan S.A., priority 2012, dated 2020)

Assays:
[1] = Expert taster evaluation in a mango juice drink; conditions: 1 ppm in base (water, 8% sucrose, 0.1% citric acid, 1% clear mango juice, mango flavour 0.05%); base alone: fruity mango
Protocol: (§1) Samples were evaluated by expert tasters. Tasters were asked to describe the samples focusing on authentic taste, mouthfeel, fullness, salty-ness, salivation, umami, sweetness, juiciness, richness, long lastingness and fattiness.
Comparison in a Mango Juice Drink
Base is water, 8% sucrose, 0.1% citric acid, 1% clear mango juice, proprietary mango flavour @ 0.05%

[2] = Expert taster evaluation in beef bouillon; conditions: 1 ppm in base (Maggi beef bouillon, 1 tablet in 500 ml hot water); base alone: salty, umami, powdery
Protocol: as §1
Base is Maggi beef bouillon 1 tablet in 500 ml of hot water

[3] = Expert taster evaluation in orange beverage; conditions: 1 ppm in base (water, 7% sugar, 0.1% citric acid, orange flavour 0.06%); base alone: orange, fruity, slightly candy
Protocol: as §1
Base is water, 7% sugar, 0.1% citric acid, proprietary orange flavour @ 0.06%.

[4] = Expert taster evaluation in lemon beverage; conditions: 1 ppm in base (water, 7% sucrose, 0.15% citric acid, lemon flavor), base alone: floral, citral
Protocol: as §1
Basis water, 7% sucrose, 0.15% citric acid, proprietary lemon flavor

Compound | taste description in mango juice drink [1] | taste description in bouillon [2] | taste description in orange beverage [3] | taste description in lemon beverage [4]
CCCCCCCCCCCCCCCC(=O)N1CCCC1C(=O)O (stereo not shown) [C16:0-pro, N-palmitoyl-Pro] | overripe, orange like, long lasting after taste | more salty, full, darker, more meat-like |  | 
CCCCC/C=C\C/C=C\CCCCCCCC(=O)N1CCC[C@H]1C(=O)O [C18:2-pro, N-linoleoyl-Pro] |  |  | very juicy, authentic orange | very juicy, more citral like, very authentic
